{"source": "paper PMC6882465", "about": "“Towards discovery of new leishmanicidal scaffolds able to inhibit Leishmania GSK-3” (Journal of Enzyme Inhibition and Medicinal Chemistry, 2019)", "key": {"LdGSK-3 [1]": {"target": "T1, LdGSK-3 (Leishmania donovani, UniProt A6N857)", "T1 sequence (A6N857 entry or part of it)": "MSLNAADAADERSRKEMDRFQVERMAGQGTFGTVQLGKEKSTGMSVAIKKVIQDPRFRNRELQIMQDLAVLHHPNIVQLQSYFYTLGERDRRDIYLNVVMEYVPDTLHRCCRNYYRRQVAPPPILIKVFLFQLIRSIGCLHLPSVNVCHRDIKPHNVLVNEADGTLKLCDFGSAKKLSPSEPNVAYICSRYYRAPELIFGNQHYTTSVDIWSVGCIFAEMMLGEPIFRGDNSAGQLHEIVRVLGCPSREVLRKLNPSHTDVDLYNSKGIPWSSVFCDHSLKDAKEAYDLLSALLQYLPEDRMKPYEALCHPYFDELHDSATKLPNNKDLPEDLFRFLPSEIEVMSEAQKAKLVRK", "design": "method as in PMID 19445946", "details": "cited from earlier work"}, "LdGSK-3 [2]": {"target": "T1, LdGSK-3", "test": "Inhibition of LdGSK-3 with Kinase Glo", "assay_type": "biochemical", "details": "Table S1; @10 µM", "method": "Assessment of inhibition of LdGSK-3 with Kinase Glo^TM\nThe reaction was allowed to proceed for 30 min at 30 °C, then it was incubated at room temperature for another 10 min after addition of Kinase Glo reagents (Promega, Ref. V6712). ATP consumption by LdGSK-3 was measured indirectly through end-point luminescence measurement of each well in a Varioskan Flash microplate reader (Thermo)."}, "[3]": {"tested_on": "L. infantum promastigotes", "test": "Leishmanicidal assay on promastigotes (inhibition of MTT reduction)", "assay_type": "cell-based, Leishmania infantum", "details": "Table S1; 72 h", "protocol": "(§1) Leishmania parasites were resuspended with the corresponding drug concentration at 2 × 10^6 parasites/mL (final concentration) in their respective growth media in 96 microwell plates (200 µL/well). The parasites were allowed to growth for 72 h at 26 °C for promastigotes and 96 h at 32 °C for axenic amastigotes. Afterwards, inhibition of proliferation was measured by the inhibition of MTT reduction by the parasites. […] MTT reduction was allowed to proceed for 2 h at the respective temperature, and the resulting formazan solubilised by addition of 50 µL/well of 10% SDS. Afterwards, the plate was read at 595 nm in a BioRad Microplate-reader, model 680. Samples were made by triplicate and assays were repeated at least twice."}, "[4]": {"tested_on": "L. pifanoi axenic amastigotes", "test": "Leishmanicidal assay on axenic amastigotes (inhibition of MTT reduction)", "assay_type": "cell-based, Leishmania pifanoi", "details": "Table S1; 96 h; read-out: L. pifanoi amast. ax EC50", "protocol": "as §1"}, "[5]": {"tested_on": "peritoneal murine macrophages (PMM)", "test": "Cytotoxicity on peritoneal murine macrophages (MTT)", "assay_type": "cell-based, Balb/c mice", "details": "Table S1; 48 h", "method": "Peritoneal murine macrophages were obtained from 8-week-old Balb/c mice previously elicited by i.p. injection with 1 mL of 10% thioglycollate medium three days prior to extraction. Macrophages were obtained by peritoneal washing (10 mL PBS, 4 °C). After extraction, macrophages were maintained in RPMI 1640-HIFCS at 37 °C and 5% CO2.\nFor peritoneal macrophages, the cells were seeded in 96 microwell plates at 1 × 10^5 cells/well and incubated (37 °C, 5% CO2) with the drug for 48 h. The toxicity was evaluated by the inhibition of MTT reduction as above."}, "hGSK-3β": {"target": "hGSK-3β (Homo sapiens, UniProt P49841)", "sequence (P49841 whole entry)": "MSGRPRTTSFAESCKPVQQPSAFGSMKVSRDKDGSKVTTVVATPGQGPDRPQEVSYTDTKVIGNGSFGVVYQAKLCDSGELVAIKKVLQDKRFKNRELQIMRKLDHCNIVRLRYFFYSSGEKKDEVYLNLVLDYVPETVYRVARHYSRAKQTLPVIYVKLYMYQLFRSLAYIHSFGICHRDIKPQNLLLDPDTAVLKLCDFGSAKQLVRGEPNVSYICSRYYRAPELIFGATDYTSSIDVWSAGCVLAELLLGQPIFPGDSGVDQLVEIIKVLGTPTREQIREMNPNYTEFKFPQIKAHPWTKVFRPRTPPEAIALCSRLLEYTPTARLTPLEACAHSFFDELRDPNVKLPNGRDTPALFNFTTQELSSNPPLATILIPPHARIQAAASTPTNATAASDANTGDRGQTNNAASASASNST", "details": "Table S1; ref 8 (supplement); cited from earlier work"}}}
{"smiles": "Cc1cc2c(cc1Br)NC(=O)C2=C1Nc2ccccc2C1=NO", "note": "[6-bromo-5-methylindirubin-3'-oxime]", "values": [{"measurement": "LdGSK-3 inhibition (in words)", "setting": "LdGSK-3 [1]", "value": "inhibited"}]}
{"smiles": "CC(=O)C1=C(c2c[nH]c3ccccc23)C(=O)NC1=O", "note": "[Compound 16]", "values": [{"measurement": "LdGSK-3 % inhibition", "setting": "LdGSK-3 [2]", "value": "< 20", "unit": "%"}, {"measurement": "EC50", "setting": "[3]", "value": "> 50", "unit": "µM"}, {"measurement": "EC50", "setting": "[4]", "value": "2.5 ± 2.7", "unit": "µM"}, {"measurement": "EC50", "setting": "[5]", "value": "> 50", "unit": "µM"}, {"measurement": "IC50", "setting": "hGSK-3β", "value": "4.47 ± 0.35", "unit": "µM"}]}
{"smiles": "COc1ccc(-n2cnc3cc(C(=O)CBr)ccc32)cc1", "note": "[Compound 17]", "values": [{"measurement": "LdGSK-3 % inhibition", "setting": "LdGSK-3 [2]", "value": 35.5, "unit": "%"}, {"measurement": "EC50", "setting": "[3]", "value": "3.4 ± 0.5", "unit": "µM"}, {"measurement": "EC50", "setting": "[4]", "value": "4.5 ± 0.2", "unit": "µM"}, {"measurement": "EC50", "setting": "[5]", "value": "> 25", "unit": "µM"}, {"measurement": "IC50", "setting": "hGSK-3β", "value": "0.58 ± 0.07", "unit": "µM"}]}
